Test results from the CheMixHub viscosity set.

Assay: xn = mol fraction of the nth substance listed

CCOC(=O)C(=O)OCC + ClC(Cl)(Cl)Cl
303.15 K, 101 kPa
Details | viscosity [mPa·s]
x1 = 0.0736 | 0.915
x1 = 0.1516 | 0.997
x1 = 0.2345 | 1.074
x1 = 0.3227 | 1.155
x1 = 0.4171 | 1.24
x1 = 0.5177 | 1.323
x1 = 0.6259 | 1.402
x1 = 0.7414 | 1.482
x1 = 0.8658 | 1.574

CCCCNCCCC + ClC(Cl)Cl
298.15 K, 101.3 kPa
Details | viscosity [mPa·s]
x1 = 0.102 | 0.639
x1 = 0.199 | 0.717
x1 = 0.3088 | 0.803
x1 = 0.3714 | 0.845
x1 = 0.4997 | 0.904
x1 = 0.6082 | 0.925
x1 = 0.698 | 0.907
x1 = 0.7719 | 0.89
x1 = 0.9007 | 0.852

CCOC(=O)C(=O)OCC + ClC(Cl)Cl
303.15 K, 101 kPa
Details | viscosity [mPa·s]
x1 = 0.0624 | 0.606
x1 = 0.1302 | 0.712
x1 = 0.2043 | 0.825
x1 = 0.2854 | 0.942
x1 = 0.3747 | 1.051
x1 = 0.473 | 1.157
x1 = 0.5831 | 1.28
x1 = 0.7057 | 1.399
x1 = 0.8436 | 1.539

CCCCNCCCC + ClCCl
298.15 K, 101.3 kPa
Details | viscosity [mPa·s]
x1 = 0.0995 | 0.494
x1 = 0.2125 | 0.55
x1 = 0.299 | 0.59
x1 = 0.3913 | 0.633
x1 = 0.4338 | 0.655
x1 = 0.6097 | 0.719
x1 = 0.6782 | 0.74
x1 = 0.807 | 0.768
x1 = 0.8865 | 0.787

C[N+](C)(C)C[C@H](O)CC(=O)[O-] + NC(N)=O
Details | viscosity [mPa·s]
298.15 K, 101.33 kPa, x2 = 0.7 | 553

CCCC(=O)O + NC=O
viscosity [mPa·s], 101 kPa
Details | x1 = 0.1043 | x1 = 0.2044 | x1 = 0.3013 | x1 = 0.4031 | x1 = 0.5027 | x1 = 0.5996 | x1 = 0.7011 | x1 = 0.799 | x1 = 0.857 | x1 = 0.951
298.15 K | 2.333 | 3.534 | 5.24 | 7.11 | 8.41 | 9.33 | 9.17 | 8.51 | 7.33 | 4.986
313.15 K | 1.734 | 2.563 | 3.461 | 4.456 | 5.37 | 5.8 | 5.8 | 5.54 | 4.779 | 3.252

CCN(C=O)CC + NC=O
viscosity [mPa·s]
Details | 298.15 K | 308.15 K | 323.15 K
101 kPa, x1 = 0.1 | 3.55 | 2.91 | 2.27
101 kPa, x1 = 0.2 | 3.62 | 2.97 | 2.29
101 kPa, x1 = 0.3 | 3.51 | 2.86 | 2.15
101 kPa, x1 = 0.4 | 3.25 | 2.62 | 1.91
101 kPa, x1 = 0.5 | 2.93 | 2.34 | 1.64
101 kPa, x1 = 0.6 | 2.52 | 2.01 | 1.43
101 kPa, x1 = 0.7 | 2.24 | 1.71 | 1.22
101 kPa, x1 = 0.85 | 1.61 | 1.34 | 1.01
101.33 kPa, x2 = 0.07537 | 1.391 | – | 0.937
101.33 kPa, x2 = 0.1513 | 1.585 | – | 1.034
101.33 kPa, x2 = 0.2164 | 1.736 | – | 1.103
101.33 kPa, x2 = 0.2957 | 2.021 | – | 1.26
101.33 kPa, x2 = 0.3723 | 2.312 | – | 1.37
101.33 kPa, x2 = 0.4452 | 2.614 | – | 1.503
101.33 kPa, x2 = 0.4964 | 2.776 | – | 1.603
101.33 kPa, x2 = 0.5665 | 3.138 | – | 1.757
101.33 kPa, x2 = 0.6362 | 3.333 | – | 1.859
101.33 kPa, x2 = 0.7013 | 3.547 | – | 1.942
101.33 kPa, x2 = 0.7404 | 3.678 | – | 1.99
101.33 kPa, x2 = 0.785 | 3.722 | – | 2.046
101.33 kPa, x2 = 0.8471 | 3.663 | – | 2.045
101.33 kPa, x2 = 0.93 | 3.516 | – | 1.978
